These results are taken from patent publication US20260297070A1, “CYCLIC [COMPOUND LEFT OUT] WRN INHIBITORS” (Nimbus Wadjet, Inc., priority 2023, published 2026).

Structures are written as SMILES. Some results are limits rather than exact numbers.

For this assay, the target named is T1, human Werner helicase (WRN-BV08, Uniprot Q14191, amino acids 517-1235 with L1074F point mutation) (Homo sapiens, UniProt Q14191, L1074F).
T1 construct: Uniprot Q14191, amino acids 517-1235 with L1074F point mutation; TEV-cleavable 8×His (C, cleaved yes); made in house; host or cells: Sf9 insect cells (baculovirus)
T1 sequence (Q14191 with tags, fused parts or gaps L1074F limits assumed): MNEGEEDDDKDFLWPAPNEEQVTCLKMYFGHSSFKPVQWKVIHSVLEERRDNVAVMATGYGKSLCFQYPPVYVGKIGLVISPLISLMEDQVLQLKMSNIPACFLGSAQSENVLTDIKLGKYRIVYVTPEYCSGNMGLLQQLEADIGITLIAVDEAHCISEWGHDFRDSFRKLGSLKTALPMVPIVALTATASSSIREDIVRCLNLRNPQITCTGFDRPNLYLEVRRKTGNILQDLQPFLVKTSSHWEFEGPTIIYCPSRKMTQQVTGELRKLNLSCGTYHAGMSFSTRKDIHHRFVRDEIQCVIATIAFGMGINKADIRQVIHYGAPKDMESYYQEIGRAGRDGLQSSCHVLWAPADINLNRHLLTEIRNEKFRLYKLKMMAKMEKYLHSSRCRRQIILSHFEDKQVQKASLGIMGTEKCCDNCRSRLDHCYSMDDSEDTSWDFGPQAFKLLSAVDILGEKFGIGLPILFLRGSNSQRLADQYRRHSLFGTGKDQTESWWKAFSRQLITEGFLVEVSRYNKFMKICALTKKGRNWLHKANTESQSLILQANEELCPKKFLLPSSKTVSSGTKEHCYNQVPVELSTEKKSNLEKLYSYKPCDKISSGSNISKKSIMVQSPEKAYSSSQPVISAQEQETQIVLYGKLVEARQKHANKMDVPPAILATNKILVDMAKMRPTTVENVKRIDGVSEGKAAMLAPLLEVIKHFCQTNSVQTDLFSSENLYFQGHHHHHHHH
The assay can be described thus: WRN (BV08) ADP-Glo Assay. Type of assay: biochemical. Particulars: 0.15 nM WRN, 5 μM ATP, 0.1 nM DNA duplex, 15 min preincubation, 60 min at 25° C., pH 7.5, 1% DMSO; read-out: ADP-Glo_hWRN_IC50. The method in brief: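 Percent inhibition was normalised to DMSO (max) and 20 μM NSC-617145 (min) controls from ADP-Glo luminescence, and IC50 values came from a four-parameter fit. The reaction ran 60 min at 25 °C with 0.15 nM WRN, 5 μM ATP and 0.1 nM duplex DNA.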
(In ADP-Glo the light output rises with the ADP produced.)
As for `O=C(Cc1ccc(S(F)(F)(F)(F)F)cc1)N(CC1CC1)C1C=CS(=O)(=O)C1` (centres unmarked) [I-608, N-(cyclopropylmethyl)-N-(1,1-dioxo-2,3-dihydro-1lambda6-thiophen-3-yl)-2-[4-(pentafluoro-lambda6-sulfanyl)phenyl]acetamide], the IC50 is 10 to 50 µM.

As to `Cc1cc(-c2ccc(F)cc2)ccc1CC(=O)N(Cc1ccncc1)C1C=CS(=O)(=O)C1` (centres unmarked) [I-227, N-(1,1-dioxo-2,3-dihydro-1lambda6-thiophen-3-yl)-2-{4′-fluoro-3-methyl-[1,1′-biphenyl]-4-yl}-N-[(pyridin-4-yl)methyl]acetamide], the IC50 is 5 to 10 µM.

Turning to `CC(C)(O)c1cc(CN(C(=O)Cc2ccc(S(F)(F)(F)(F)F)cc2)[C@@H]2C=CS(=O)(=O)C2)ccn1` [I-16, (R)—N-(1,1-dioxido-2,3-dihydrothiophen-3-yl)-N-((2-(2-hydroxypropan-2-yl)pyridin-4-yl)methyl)-2-(4-(pentafluoro-λ^6-sulfaneyl)phenyl)acetamide], the IC50 is under 0.5 µM.

For the compound `O=C(Cc1ccc(S(F)(F)(F)(F)F)cc1)N(Cc1nc(C(F)F)cs1)C1C=CS(=O)(=O)C1` (centres unmarked) [I-729, N-{[4-(difluoromethyl)-1,3-thiazol-2-yl]methyl}-N-(1,1-dioxo-2,3-dihydro-1lambda6-thiophen-3-yl)-2-[4-(pentafluoro-lambda6-sulfanyl)phenyl]acetamide], the IC50 was over 50 µM.

For `CC(C)(O)c1cc(CN(C(=O)C(OC2CC2)c2ccc(-c3ccc(F)c(F)c3)cc2F)[C@@H]2C=CS(=O)(=O)C2)ccn1` (single isomer, unassigned) [I-681], the IC50 was under 0.5 µM.

As to `NC(=O)c1cccc(CN(C(=O)Cc2ccc(-n3cccc3)cc2)C2C=CS(=O)(=O)C2)c1` (centres unmarked) [I-318, 3-{[N-(1,1-dioxo-2,3-dihydro-1lambda6-thiophen-3-yl)-2-[4-(1H-pyrrol-1-yl)phenyl]acetamido]methyl}benzamide], the IC50 was in the range of 10 to 50 µM. As for `O=C([C@@H]1CC[C@@H](c2ccccc2)C1)N(Cc1ccncc1)C1C=CS(=O)(=O)C1` (mixture of isomers) [I-655, rac-(1R,3R)-N-(1,1-dioxo-2,3-dihydro-1lambda6-thiophen-3-yl)-3-phenyl-N-[(pyridin-4-yl)methyl]cyclopentane-1-carboxamide], the IC50 is over 50 µM. On to `O=C(Cn1ccc(-c2ccc(F)cc2)cc1=O)N(Cc1ccncc1)C1C=CS(=O)(=O)C1` (centres unmarked) [I-147, N-(1,1-dioxido-2,3-dihydrothiophen-3-yl)-2-(4-(4-fluorophenyl)-2-oxopyridin-1(2H)-yl)-N-(pyridin-4-ylmethyl)acetamide], for which the IC50 fell in the range of 0.5 to 5 µM.

On to `COc1cc(CN(C(=O)C(OCC2CN(S(C)(=O)=O)C2)c2ccc(-c3ccc(F)c(F)c3)cc2F)[C@@H]2C=CS(=O)(=O)C2)ccn1` (stereo partly drawn) [I-810, N-[(3R)-1,1-dioxo-2,3-dihydro-1lambda6-thiophen-3-yl]-2-[(1-methanesulfonylazetidin-3-yl)methoxy]-N-[(2-methoxypyridin-4-yl)methyl]-2-{3,3′,4′-trifluoro-[1,1′-biphenyl]-4-yl}acetamide], for which the IC50 lay in the range of 0.5 to 5 µM.

As to `O=C(Cc1ccc(-n2cccc2)cc1)N(C1C=CS(=O)(=O)C1)C1CCCc2cnccc21` (centres unmarked) [I-471, N-(1,1-dioxo-2,3-dihydro-1lambda6-thiophen-3-yl)-2-[4-(1H-pyrrol-1-yl)phenyl]-N-(5,6,7,8-tetrahydroisoquinolin-5-yl)acetamide], the IC50 was over 50 µM. With `O=C(Cc1ccc(-n2cccc2)cc1)N(C1C=CS(=O)(=O)C1)C(CO)c1ccccc1` (centres unmarked) [I-525, N-(1,1-dioxo-2,3-dihydro-1lambda6-thiophen-3-yl)-N-(2-hydroxy-1-phenylethyl)-2-[4-(1H-pyrrol-1-yl)phenyl]acetamide], the IC50 was over 50 µM. For `COc1cc(CN(C(=O)C2CCc3[nH]c4cc(Cl)ccc4c3C2)[C@@H]2C=CS(=O)(=O)C2)ccn1` (stereo partly drawn) [I-786, 7-chloro-N-[(3R)-1,1-dioxo-2,3-dihydro-1lambda6-thiophen-3-yl]-N-[(2-methoxypyridin-4-yl)methyl]-2,3,4,9-tetrahydro-1H-carbazole-3-carboxamide], the IC50 was in the range of 0.5 to 5 µM. With `CC(C)(O)c1csc(CN(C(=O)Cc2ccc(S(F)(F)(F)(F)F)cc2)C2C=CS(=O)(=O)C2)n1` (centres unmarked) [I-637, N-(1,1-dioxo-2,3-dihydro-1lambda6-thiophen-3-yl)-N-{[4-(2-hydroxypropan-2-yl)-1,3-thiazol-2-yl]methyl}-2-[4-(pentafluoro-lambda6-sulfanyl)phenyl]acetamide], the IC50 lay within 10 to 50 µM.

For the compound `O=C(Cc1ccc2cc(Br)ccc2c1)N(Cc1ccncc1)C1C=CS(=O)(=O)C1` (centres unmarked) [I-220, 2-(6-bromonaphthalen-2-yl)-N-(1,1-dioxo-2,3-dihydro-1lambda6-thiophen-3-yl)-N-[(pyridin-4-yl)methyl]acetamide], the IC50 lay in the range of 5 to 10 µM. Turning to `Cc1c(CC(=O)N(Cc2ccncc2)C2C=CS(=O)(=O)C2)c(=O)[nH]c2ccccc12` (centres unmarked) [I-418, N-(1,1-dioxo-2,3-dihydro-1lambda6-thiophen-3-yl)-2-(4-methyl-2-oxo-1,2-dihydroquinolin-3-yl)-N-[(pyridin-4-yl)methyl]acetamide], the IC50 is over 50 µM. With `O=C(Cc1csc(C2CCCC2)n1)N(Cc1ccncc1)C1C=CS(=O)(=O)C1` (centres unmarked) [I-445, 2-(2-cyclopentyl-1,3-thiazol-4-yl)-N-(1,1-dioxo-2,3-dihydro-1lambda6-thiophen-3-yl)-N-[(pyridin-4-yl)methyl]acetamide], the IC50 was over 50 µM. For `COc1cc(CN(C(=O)C(OC)c2ccc(S(F)(F)(F)(F)F)cc2)C2C=CS(=O)(=O)C2)ccn1` (centres unmarked) [I-92, N-(1,1-dioxo-2,3-dihydro-1lambda6-thiophen-3-yl)-2-methoxy-N-[(2-methoxypyridin-4-yl)methyl]-2-[4-(pentafluoro-lambda6-sulfanyl)phenyl]acetamide], the IC50 is 0.5 to 5 µM. Take `O=C(Cc1ccc2c(c1)CCOC2)N(Cc1ccncc1)C1C=CS(=O)(=O)C1` (centres unmarked) [I-630, 2-(3,4-dihydro-1H-2-benzopyran-6-yl)-N-(1,1-dioxo-2,3-dihydro-1lambda6-thiophen-3-yl)-N-[(pyridin-4-yl)methyl]acetamide]: the IC50 is over 50 µM. In the case of `CC(C)(O)c1cc(CN(C(=O)Cc2ccc(-n3cccc3)cc2F)C2C=CS(=O)(=O)C2)ccn1` (single isomer, unassigned) [I-469], the IC50 is over 50 µM. As for `COc1cc(CN(C(=O)C(OC)c2ccc(C(F)(F)F)cc2)C2C=CS(=O)(=O)C2)ccn1` (centres unmarked) [I-246, N-(1,1-dioxo-2,3-dihydro-1lambda6-thiophen-3-yl)-2-methoxy-N-[(2-methoxypyridin-4-yl)methyl]-2-[4-(trifluoromethyl)phenyl]acetamide], the IC50 lay within 5 to 10 µM.

Turning to `CC(C)(O)c1cc(CN(C(=O)C2Cc3cc(S(F)(F)(F)(F)F)ccc3O2)[C@@H]2C=CS(=O)(=O)C2)ccn1` (single isomer, unassigned) [I-730], the IC50 was under 0.5 µM.

On to `O=C(Cc1ccc(-n2cccc2)cc1)N(Cc1cccc(-n2cccn2)c1)C1C=CS(=O)(=O)C1` (centres unmarked) [I-232, N-(1,1-dioxo-2,3-dihydro-1lambda6-thiophen-3-yl)-N-{[3-(1H-pyrazol-1-yl)phenyl]methyl}-2-[4-(1H-pyrrol-1-yl)phenyl]acetamide], for which the IC50 is 5 to 10 µM.

As to `COc1cc(CN(C(=O)CCc2c[nH]c3cc(Cl)ccc23)C2C=CS(=O)(=O)C2)ccn1` (centres unmarked) [I-240, 3-(6-chloro-1H-indol-3-yl)-N-(1,1-dioxo-2,3-dihydro-1lambda6-thiophen-3-yl)-N-[(2-methoxypyridin-4-yl)methyl]propanamide], the IC50 lay within 5 to 10 µM. In the case of `COc1cc(CN(C(=O)C(OC2CS(=O)(=O)C2)c2ccc(-c3ccc(F)c(F)c3)cc2F)[C@@H]2C=CS(=O)(=O)C2)ccn1` (stereo partly drawn) [I-833, 2-[(1,1-dioxo-1lambda6-thietan-3-yl)oxy]-N-[(3R)-1,1-dioxo-2,3-dihydro-1lambda6-thiophen-3-yl]-N-[(2-methoxypyridin-4-yl)methyl]-2-{3,3′,4′-trifluoro-[1,1′-biphenyl]-4-yl}acetamide] it was 10 to 50 µM; in that of `O=C(Cc1ccc2c(c1)OCO2)N(Cc1ccncc1)C1C=CS(=O)(=O)C1` (centres unmarked) [I-494, 2-(2H-1,3-benzodioxol-5-yl)-N-(1,1-dioxo-2,3-dihydro-1lambda6-thiophen-3-yl)-N-[(pyridin-4-yl)methyl]acetamide], over 50 µM. For the compound `COc1cc(CN(C(=O)Cc2ccn(-c3ccc(Cl)cc3)n2)C2C=CS(=O)(=O)C2)ccn1` (centres unmarked) [I-380, 2-[1-(4-chlorophenyl)-1H-pyrazol-3-yl]-N-(1,1-dioxo-2,3-dihydro-1lambda6-thiophen-3-yl)-N-[(2-methoxypyridin-4-yl)methyl]acetamide], the IC50 is over 50 µM. As to `COC(C(=O)N(Cc1ccncc1)C1C=CS(=O)(=O)C1)c1ccc(-c2ccc(F)cc2)cc1` (single isomer, unassigned) [I-330, (2R*)-N-[(3R**)-1,1-dioxo-2,3-dihydro-1lambda6-thiophen-3-yl]-2-{4′-fluoro-[1,1′-biphenyl]-4-yl}-2-methoxy-N-[(pyridin-4-yl)methyl]acetamide], the IC50 lay in the range of 10 to 50 µM. Turning to `O=C(Cc1ccc(-n2cccc2)cc1)N(Cc1ccnc(C(F)F)c1)C1C=CS(=O)(=O)C1` (centres unmarked) [I-187, N-{[2-(difluoromethyl)pyridin-4-yl]methyl}-N-(1,1-dioxo-2,3-dihydro-1lambda6-thiophen-3-yl)-2-[4-(1H-pyrrol-1-yl)phenyl]acetamide], the IC50 lay in the range of 0.5 to 5 µM.

In the case of `O=C(Cc1ccc(-n2cccc2)cc1)N(Cc1nc2cnccc2s1)C1C=CS(=O)(=O)C1` (centres unmarked) [I-165, N-(1,1-dioxo-2,3-dihydro-1lambda6-thiophen-3-yl)-2-[4-(1H-pyrrol-1-yl)phenyl]-N-({[1,3]thiazolo[4,5-c]pyridin-2-yl}methyl)acetamide], the IC50 is 0.5 to 5 µM.
